In general, IC50 refers to the concentration at which inhibition is half-maximal.

SMILES strings stand for the structures.

The target in one experiment is Cdk4/CyclinD1 (Homo sapiens (Human), UniProt P11802). The experiment can be described thus: Cdk4 kinase inhibition assay with recombinant Cdk4/CyclinD1, Rb substrate, [33P]-ATP filter plate. Type of experiment: biochemical. As to conditions: 25 μM ATP, read-out: Cdk 4 IC50. The procedure, abridged:
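Recombinant Cdk4/CyclinD1 or Cdk6/CyclinD3 phosphorylated Rb protein with [33P]-ATP for 1 h at room temperature. Protein was TCA-precipitated on filter plates and bound radioactivity counted. IC50 by nonlinear regression.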

In a further experiment the target is Cdk6/CyclinD3 (Homo sapiens (Human), UniProt Q00534). As to the kind of experiment: Cdk6 kinase inhibition assay with recombinant Cdk6/CyclinD3, Rb substrate, [33P]-ATP filter plate. The class given is biochemical. As to conditions: 25 μM ATP, read-out: Cdk 6 IC50. How it is done: The Cdk4 and Cdk6 inhibitory activity of the compounds is measured with a kinase inhibition assay using recombinant Cdk4/CyclinD1 or Cdk6/CyclinD3 protein complexes. The protein substrate used in the assay is the retinoblastoma protein (Rb). The kinase reactions are carried out in a 96-well filter plate (MSDV N6B50, Millipore). […] The mixture is incubated at room temperature for 1 hour and the proteins precipitated with an equal volume of 20% TCA. The plates are washed with 10% TCA according to the manufacturer's instruction and dried at room temperature. The amount of the phosphorylated Rb is determined with a TopCount (PerkinElmer). The IC50 of a compound is determined by nonlinear regression curve fitting using software program Prism 5 (GraphPad Software).
Sequence of Cdk6/CyclinD3 (Q00534 whole entry): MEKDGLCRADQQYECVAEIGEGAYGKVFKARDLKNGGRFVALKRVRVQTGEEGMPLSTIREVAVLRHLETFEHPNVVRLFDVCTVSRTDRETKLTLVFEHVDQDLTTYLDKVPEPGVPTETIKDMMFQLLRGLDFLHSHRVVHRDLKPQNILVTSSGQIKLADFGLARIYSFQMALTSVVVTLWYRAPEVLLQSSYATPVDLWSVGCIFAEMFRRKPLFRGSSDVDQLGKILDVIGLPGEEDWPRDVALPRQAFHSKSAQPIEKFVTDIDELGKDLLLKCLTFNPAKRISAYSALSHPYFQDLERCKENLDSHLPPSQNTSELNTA
Sequence of Cdk6/CyclinD3 (P30281 whole entry partner): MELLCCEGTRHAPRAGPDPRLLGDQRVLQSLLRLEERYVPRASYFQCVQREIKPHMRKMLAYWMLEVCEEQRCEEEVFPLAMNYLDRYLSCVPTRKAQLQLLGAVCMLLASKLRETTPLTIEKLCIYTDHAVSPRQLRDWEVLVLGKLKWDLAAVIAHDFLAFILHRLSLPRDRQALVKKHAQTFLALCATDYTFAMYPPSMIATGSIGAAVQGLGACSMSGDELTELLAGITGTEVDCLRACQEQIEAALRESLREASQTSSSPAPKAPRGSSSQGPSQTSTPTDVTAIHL

Sequence of Cdk4/CyclinD1 (P11802 whole entry): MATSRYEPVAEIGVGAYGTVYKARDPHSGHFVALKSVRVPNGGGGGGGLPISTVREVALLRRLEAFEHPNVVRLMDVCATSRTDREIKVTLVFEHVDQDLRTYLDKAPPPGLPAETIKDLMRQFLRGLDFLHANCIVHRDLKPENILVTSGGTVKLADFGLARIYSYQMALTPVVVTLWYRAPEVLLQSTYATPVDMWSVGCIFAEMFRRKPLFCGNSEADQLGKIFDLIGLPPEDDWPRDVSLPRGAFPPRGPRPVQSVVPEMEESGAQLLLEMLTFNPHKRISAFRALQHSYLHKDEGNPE
Sequence of Cdk4/CyclinD1 (P24385 whole entry partner): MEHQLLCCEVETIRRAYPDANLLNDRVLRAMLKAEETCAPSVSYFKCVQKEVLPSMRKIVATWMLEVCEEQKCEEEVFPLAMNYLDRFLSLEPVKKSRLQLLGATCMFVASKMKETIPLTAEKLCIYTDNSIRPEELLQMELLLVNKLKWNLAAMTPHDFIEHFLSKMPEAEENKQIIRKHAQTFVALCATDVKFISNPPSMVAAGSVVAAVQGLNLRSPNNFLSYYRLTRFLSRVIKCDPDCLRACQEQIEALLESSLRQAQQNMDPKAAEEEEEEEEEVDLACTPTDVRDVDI

Regarding `c1cc2c3cnc(Nc4ccc(N5CCNCC5)cn4)nc3n(C3CCCCCC3)c2cn1` [Example 34, (9-Cycloheptyl-9H-pyrido[4′,3′:4,5]pyrrolo[2,3-d]pyrimidin-2-yl)-(5-piperazin-1-yl-pyridin-2-yl)-amine], the IC50 on Cdk4/CyclinD1 worked out at 11 nM; on Cdk6/CyclinD3, 21 nM.
Take `c1cnc2c(c1)c1cnc(Nc3ccc(N4CCNCC4)cn3)nc1n2C1CCCC1` [Example 35, (9-Cyclopentyl-9H-pyrido[3′,2′:4,5]pyrrolo[2,3-d]pyrimidin-2-yl)-(5-piperazin-1-yl-pyridin-2-yl)-amine]: the IC50 on Cdk4/CyclinD1 was 8.2 nM; at Cdk6/CyclinD3, 21 nM.
The corresponding values for `c1cnc2c(c1)c1cnc(Nc3ccc(N4CCNCC4)cc3)nc1n2C1CCCC1` [Example 36, (9-Cyclopentyl-9H-pyrido[3′,2′:4,5]pyrrolo[2,3-d]pyrimidin-2-yl)-(4-piperazin-1-yl-phenyl)-amine] are 0.83 nM and 4.4 nM.
With `c1ccc2c(c1)c1cnc(Nc3ccc(N4CCNCC4)cn3)nc1n2C1CCCC1` [Example 37, (9-Cyclopentyl-9H-pyrimido[4,5-b]indol-2-yl)-(5-piperazin-1-yl-pyridin-2-yl)-amine], the 50% inhibitory concentration (IC50) at Cdk4/CyclinD1 was determined as 4.3 nM; at Cdk6/CyclinD3, 1.2 nM.
`c1ccc2c(c1)c1cnc(Nc3ccc(N4CCNCC4)cn3)nc1n2C1CCOCC1` [Example 38, (5-piperazin-1-yl-pyridin-2-yl)-[9-(tetrahydro-pyran-4-yl)-9H-pyrimido[4,5-b]indol-2-yl]-amine]: the half-maximal inhibitory concentration (IC50) turned out to be 2.1 nM at Cdk4/CyclinD1 and 15.3 nM on Cdk6/CyclinD3.
`c1ccc2c(c1)c1cnc(Nc3ccc(N4CCNCC4)cn3)nc1n2C1CCCCCC1` [Example 39, (9-Cycloheptyl-9H-pyrimido[4,5-b]indol-2-yl)-(5-piperazin-1-yl-pyridin-2-yl)-amine]: the half-inhibitory concentration (IC50) at Cdk4/CyclinD1 worked out at 2.1 nM; at Cdk6/CyclinD3 it was 3.1 nM.
Regarding `N#Cc1ccc2c3cnc(Nc4ccc(N5CCNCC5)cn4)nc3n(C3CCCC3)c2c1` [Example 41, 9-Cyclopentyl-2-(5-piperazin-1-yl-pyridin-2-ylamino)-9H-pyrimido[4,5-b]indole-7-carbonitrile], the figures for the concentration for half-maximal inhibition (IC50) at Cdk4/CyclinD1 and on Cdk6/CyclinD3 were 2.7 nM and 7.2 nM, respectively.
The corresponding values for `COc1cc2c3cnc(Nc4ccc(N5CCNCC5)cn4)nc3n(C3CCCC3)c2cn1` [Example 42, (9-Cyclopentyl-6-methoxy-9H-pyrido[4′,3′:4,5]pyrrolo[2,3-d]pyrimidin-2-yl)-(5-piperazin-1-yl-pyridin-2-yl)-amine] are 237 nM and 500 nM.
Consider `Oc1cc2c3cnc(Nc4ccc(N5CCNCC5)cn4)nc3n(C3CCCC3)c2cn1` [Example 43, 9-Cyclopentyl-2-(5-piperazin-1-yl-pyridin-2-ylamino)-9H-pyrido[4′,3′:4,5]pyrrolo[2,3-d]pyrimidin-6-ol], for which the IC50 on Cdk4/CyclinD1 was determined as 136 nM; at Cdk6/CyclinD3 it was 218 nM.
The corresponding values for `OCC1(n2c3cnccc3c3cnc(Nc4ccc(N5CCNCC5)cn4)nc32)CCCC1` [Example 44, {1-[2-(5-piperazin-1-yl-pyridin-2-ylamino)-pyrido[4′,3′:4,5]pyrrolo[2,3-d]pyrimidin-9-yl]-cyclopentyl}-methanol] are 11 nM and 25 nM.
Regarding `CC(C)(CO)Cn1c2cnccc2c2cnc(Nc3ccc(N4CCNCC4)cn3)nc21` [Example 45, 2,2-Dimethyl-3-[2-(5-piperazin-1-yl-pyridin-2-ylamino)-pyrido[4′,3′:4,5]pyrrolo[2,3-d]pyrimidin-9-yl]-propan-1-ol], the IC50 on Cdk4/CyclinD1 came out at 73 nM; on Cdk6/CyclinD3 it was 129 nM.
The corresponding values for `c1ccc2c(c1)c1cnc(Nc3ccc(N4CCNCC4)cc3)nc1n2C1CCOCC1` [Example 46, (4-piperazin-1-yl-phenyl)-[9-(tetrahydro-pyran-4-yl)-9H-pyrimido[4,5-b]indol-2-yl]-amine] are 2 nM and 0.75 nM.
For `c1ccc2c(c1)c1cnc(Nc3ccc(N4CCNCC4)cc3)nc1n2C1CCCC1` [Example 47, (9-Cyclopentyl-9H-pyrimido[4,5-b]indol-2-yl)-(4-piperazin-1-yl-phenyl)-amine] the same measures were 2 nM and 3.7 nM.
Regarding `c1cc2c3cnc(Nc4ccc(N5CCCNCC5)cn4)nc3n(C3CCCC3)c2cn1` [Example 48, 9-cyclopentyl-N-(5-(1,4-diazepan-1-yl)-2-pyridinyl)-9H-pyrido[4′,3′:4,5]pyrrolo[2,3-d]pyrimidin-2-amine], the concentration for half-maximal inhibition (IC50) at Cdk4/CyclinD1 came to 1.6 nM; on Cdk6/CyclinD3 it was 5.6 nM.
On to `O=C(c1cnc(Nc2ncc3c4ccncc4n(C4CCCC4)c3n2)s1)N1CCNCC1` [Example 50, 9-cyclopentyl-N-(5-(1-piperazinylcarbonyl)-1,3-thiazol-2-yl)-9H-pyrido[4′,3′:4,5]pyrrolo[2,3-d]pyrimidin-2-amine], for which the figures for the IC50 at Cdk4/CyclinD1 and on Cdk6/CyclinD3 were 66 nM and 112 nM, respectively.
For `Cc1cc(N2CCNCC2)cnc1Nc1ncc2c3ccncc3n(C3CCCC3)c2n1` [Example 51, 9-cyclopentyl-N-(3-methyl-5-(1-piperazinyl)-2-pyridinyl)-9H-pyrido[4′,3′:4,5]pyrrolo[2,3-d]pyrimidin-2-amine] the same measures were 126 nM and 406 nM.
Regarding `COc1nccc2c3cnc(Nc4ccc(N5CCNCC5)cn4)nc3n(C3CCCC3)c12` [Example 52, 9-cyclopentyl-8-(methyloxy)-N-(5-(1-piperazinyl)-2-pyridinyl)-9H-pyrido[4′,3′:4,5]-pyrrolo[2,3-d]pyrimidin-2-amine], the 50% inhibitory concentration (IC50) at Cdk4/CyclinD1 came to 12 nM; on Cdk6/CyclinD3, 22 nM.
The corresponding values for `O=c1[nH]ccc2c3cnc(Nc4ccc(N5CCNCC5)cn4)nc3n(C3CCCC3)c12` [Example 53, 9-Cyclopentyl-2-((5-(1-piperazinyl)-2-pyridinyl)amino)-7,9-dihydro-8H-pyrido[4′,3′:4,5]-pyrrolo[2,3-d]pyrimidin-8-one] are 4.7 nM and 11 nM.
With `Cc1nccc2c3cnc(Nc4ccc(N5CCNCC5)cn4)nc3n(C3CCCC3)c12` [Example 54, 9-cyclopentyl-8-methyl-N-(5-(1-piperazinyl)-2-pyridinyl)-9H-pyrido[4′,3′:4,5]pyrrolo[2,3-d]pyrimidin-2-amine], the values for the IC50 on Cdk4/CyclinD1 and on Cdk6/CyclinD3 were 20 nM and 47 nM, respectively.
In the case of `CC1CCC(n2c3cnccc3c3cnc(Nc4ccc(N5CCNCC5)cn4)nc32)CC1` (stereo not shown) [Example 55, 9-(4-methylcyclohexyl)-N-(5-(1-piperazinyl)-2-pyridinyl)-9H-pyrido[4′,3′:4,5]pyrrolo[2,3-d]pyrimidin-2-amine], the 50% inhibitory concentration (IC50) at Cdk4/CyclinD1 was found to be 1.2 nM; on Cdk6/CyclinD3, 4.4 nM.
With `Fc1nccc2c3cnc(Nc4ccc(N5CCNCC5)cn4)nc3n(C3CCCC3)c12` [Example 57, 9-Cyclopentyl-8-fluoro-N-(5-(1-piperazinyl)-2-pyridinyl)-9H-pyrido[4′,3′:4,5]pyrrolo[2,3-d]pyrimidin-2-amine], the values for the IC50 on Cdk4/CyclinD1 and at Cdk6/CyclinD3 were 2 nM and 17 nM, respectively.
Turning to `c1cc2c3cnc(Nc4ccc(N[C@@H]5CCNC5)cn4)nc3n(C3CCCC3)c2cn1` [Example 63], the values for the IC50 at Cdk4/CyclinD1 and on Cdk6/CyclinD3 were 3.4 nM and 20 nM, respectively.
As to `c1cc2c3cnc(Nc4ccc(N[C@H]5CCNC5)cn4)nc3n(C3CCCC3)c2cn1` [Example 64], the 50% inhibitory concentration (IC50) at Cdk4/CyclinD1 was determined as 2.8 nM; on Cdk6/CyclinD3 it was 24 nM.
In the case of `O=S1(=O)CCC(Nc2ccc(Nc3ncc4c5ccncc5n(C5CCCC5)c4n3)nc2)C1` (stereo not shown) [Example 65], the half-inhibitory concentration (IC50) is 9.6 nM on Cdk4/CyclinD1 and 24 nM at Cdk6/CyclinD3.
Turning to `O=S1(=O)CCN(c2ccc(Nc3ncc4c5ccncc5n(C5CCCC5)c4n3)nc2)CC1` [Example 66], the IC50 on Cdk4/CyclinD1 is 5.4 nM; on Cdk6/CyclinD3, 73 nM.
For the compound `c1cc2c3cnc(Nc4ccc(NC5CCNCC5)cn4)nc3n(C3CCCC3)c2cn1` [Example 69], the half-maximal inhibitory concentration (IC50) worked out at 17 nM on Cdk4/CyclinD1 and 31 nM on Cdk6/CyclinD3.
Take `CNC1CCN(c2ccc(Nc3ncc4c5ccncc5n(C5CCCC5)c4n3)nn2)CC1` [Example 77]: the figures for the half-inhibitory concentration (IC50) at Cdk4/CyclinD1 and at Cdk6/CyclinD3 were 3 nM and 11 nM, respectively.
`O=S1(=O)CCC(Nc2ccc(Nc3ncc4c5ccncc5n(C5CCCC5)c4n3)nn2)C1` (stereo not shown) [Example 93]: the IC50 at Cdk4/CyclinD1 was determined as 3.1 nM; on Cdk6/CyclinD3, 15.9 nM.
Regarding `O=S1(=O)CCN(c2ccc(Nc3ncc4c5ccncc5n(C5CCCC5)c4n3)nn2)CC1` [Example 94], the 50% inhibitory concentration (IC50) on Cdk4/CyclinD1 was found to be 4.9 nM; on Cdk6/CyclinD3, 9.2 nM.
`c1cc2c3cnc(Nc4ccc(NC5CCNCC5)nn4)nc3n(C3CCCC3)c2cn1` [Example 96]: the IC50 on Cdk4/CyclinD1 amounted to 16.2 nM; at Cdk6/CyclinD3, 12.4 nM.
On to `c1cc2c3cnc(Nc4ccc(NCC5CNC5)nn4)nc3n(C3CCCC3)c2cn1` [Example 97], for which the half-maximal inhibitory concentration (IC50) came to 430 nM at Cdk4/CyclinD1 and 396 nM at Cdk6/CyclinD3.
For the compound `c1cc2c3cnc(Nc4ccc(NCC5CCNC5)nn4)nc3n(C3CCCC3)c2cn1` (stereo not shown) [Example 98], the results for the half-maximal inhibitory concentration (IC50) at Cdk4/CyclinD1 and at Cdk6/CyclinD3 were 2.5 nM and 26.6 nM, respectively.
For `NCC1CCN(c2ccc(Nc3ncc4c5ccncc5n(C5CCCC5)c4n3)nn2)CC1` [Example 101, 4-Aminomethyl-1-(6-((9-cyclopentyl-9H-pyrido[4′,3′:4,5]pyrrolo[2,3-d]pyrimidin-2-yl)amino)-3-pyridazinyl)-piperidine], the results for the IC50 on Cdk4/CyclinD1 and on Cdk6/CyclinD3 were 4 nM and 8.8 nM, respectively.
As for `OC1CCN(c2ccc(Nc3ncc4c5ccncc5n(C5CCCC5)c4n3)nn2)CC1` [Example 102], the IC50 at Cdk4/CyclinD1 was found to be 3.1 nM; on Cdk6/CyclinD3 it was 11.1 nM.
The corresponding values for `OCC1CCN(c2ccc(Nc3ncc4c5ccncc5n(C5CCCC5)c4n3)nn2)CC1` [Example 103] are 5.6 nM and 2.6 nM.
